A short description of test [1]: Inhibition of human phosphoenolpyruvate carboxykinase (PEPCK).
Test [2] is described as follows: Binding affinity against phosphoenolpyruvate carboxykinase (PEPCK) using isothermal titration calorimetry(ITC). For orientation: Isothermal titration calorimetry measures the heat released or taken up as one component is titrated into another.

One may read the IC50 as the midpoint of a concentration-inhibition curve. With `CCCCCCn1c(=O)n(Cc2ccccc2F)c(=O)c2[nH]c(Cc3ccc(NC(C)=O)cc3)nc21`, in test [1], the IC50 worked out at 8.9 µM.
Still for that read-out and setting: with `CC(=O)Nc1ccc(Cc2nc3c(=O)n(Cc4ccccc4F)c(=O)n(CC4CCCO4)c3[nH]2)cc1` (stereo unspecified) the figure was 5.7 µM; with `CC(=O)Nc1ccc(Cc2nc3c([nH]2)c(=O)n(Cc2ccccc2F)c(=O)n3CC2CC2)cc1`, 0.69 µM; with `CC(=O)Nc1ccc(Cc2nc3c(=O)n(Cc4ccccc4F)c(=O)n(CCCCO)c3[nH]2)cc1`, 2.85 µM.
Broadly, the Ki is the dissociation constant of the complex between target and ligand, obtained from inhibition or displacement. High values mean a looser hold on the target, low ones a stronger hold on the target. In test [2], `CC(=O)Nc1ccc(Cc2nc3c(=O)n(Cc4ccccc4F)c(=O)n(CCCC(=O)O)c3[nH]2)cc1` gave a Ki of 0.2 µM. In test [1], the IC50 turned out to be 1.95 µM.
Consider `CC(=O)Nc1ccc(Cc2nc3c(=O)n(Cc4ccccc4F)c(=O)n(CCCO)c3[nH]2)cc1`, for which half-maximal inhibition in test [1] (IC50) was put at 5.45 µM.
The same measure, in the same setting: with `CCCCn1c(=O)n(Cc2ccccc2F)c(=O)c2[nH]c(Cc3ccc(NC(C)=O)cc3)nc21` the figure was 2.11 µM; with `COC(=O)[C@H]1CC1Cn1c(=O)n(Cc2ccccc2F)c(=O)c2[nH]c(Cc3ccc(NC(C)=O)cc3)nc21` (stereo partly specified), 3 µM.
In test [1], `CC(=O)Nc1ccc(Cc2nc3c(=O)n(Cc4ccccc4F)c(=O)n(CC4CCCCO4)c3[nH]2)cc1` (stereo unspecified) displayed a half-maximal inhibitory concentration (IC50) of 4.5 µM.
Still for that read-out and setting: the same measure for `CC(=O)Nc1ccc(Cc2nc3c(=O)n(Cc4ccccc4F)c(=O)n(CCC(=O)O)c3[nH]2)cc1`: 2 µM; for `CC(=O)Nc1ccc(Cc2nc3c(=O)n(Cc4ccccc4F)c(=O)n(CC4CC4(CO)CO)c3[nH]2)cc1` (stereo unspecified): 2 µM; for `CC(=O)Nc1ccc(Cc2nc3c(=O)n(Cc4ccccc4F)c(=O)n(CC4C[C@@H]4C(=O)O)c3[nH]2)cc1` (stereo partly specified): 0.56 µM.
On the same count and under the same terms, the same measure for `CC(=O)Nc1ccc(Cc2nc3c([nH]2)c(=O)n(Cc2ccccc2F)c(=O)n3CC2C[C@@H]2C)cc1` (stereo partly specified): 1.82 µM; for `CC(=O)Nc1ccc(Cc2nc3c([nH]2)c(=O)n(Cc2ccccc2F)c(=O)n3CC(C)C)cc1`: 2.02 µM.
Still for that read-out and setting: the same measure for `CC(=O)Nc1ccc(Cc2nc3c(=O)n(Cc4ccccc4F)c(=O)n(CC4CCCC4)c3[nH]2)cc1`: 3.05 µM; for `CC(=O)Nc1ccc(Cc2nc3c(=O)n(Cc4ccccc4F)c(=O)n(CC4C[C@@H]4CO)c3[nH]2)cc1` (stereo partly specified): 2.27 µM; for `CC(=O)Nc1ccc(Cc2nc3c(=O)n(Cc4ccccc4F)c(=O)n(CCCC(N)=O)c3[nH]2)cc1`: 6.6 µM.
`CC(=O)Nc1ccc(Cc2nc3c(=O)n(Cc4ccccc4F)c(=O)n(Cc4ccoc4)c3[nH]2)cc1` gave an IC50 in test [1] of 4.5 µM.
The same measure, in the same setting: with `CCCn1c(=O)n(Cc2ccccc2F)c(=O)c2[nH]c(Cc3ccc(NC(C)=O)cc3)nc21` the figure was 1.49 µM.
In test [1], `CC(=O)Nc1ccc(Cc2nc3c(=O)n(Cc4ccccc4F)c(=O)n(CC4CCC4)c3[nH]2)cc1` yielded an IC50 of 1.18 µM.

The record behind these values is ChEMBL document CHEMBL1136342, “X-ray structures of two xanthine inhibitors bound to PEPCK and N-3 modifications of substituted 1,8-dibenzylxanthines” (Bioorg Med Chem Lett, 2003).
